Measurements reported in US10772840B2 (Charleston Laboratories, Inc., priority 2016, dated 2020).
Counter-ions that a name gives are not always drawn.

Test: Dissolution measurement by USP Apparatus 2 (Paddle Apparatus), HPLC analysis
Type: physicochemical
Conditions: for Dissolution, API released: 500 ml 0.1 N HCl pH 1.1, 37.0° C.; for Dissolution (% release), Max. / Dissolution (% release), Mean / Dissolution (% release), Min.: 500 ml 0.1 N HCl pH 1.1, N=6
Experimental: Dissolution studies were conducted to measure the rates of dissolution of active ingredients using a USP Apparatus 2 (Paddle Apparatus) with a dissolution fluid of 500 ml deaerated 0.1 N HCl (i.e., pH 1.1) at 37.0+/−0.5° C. Dissolution samples were analyzed by HPLC.
Dissolution medium of 0.1N HCl was prepared by mixing approximately 85 ml of concentrated (12N) Hydrochloric Acid with 10 L of water. Stock promethazine HCl standard solution was prepared by adding approximately 30 ml of dissolution medium to 25.0 mg of dried Promethazine Hydrochloride USP reference standard in a 50 ml volumetric flash, diluted to volume with dissolution media, and mixed well. […] The resulting solution is diluted to volume with dissolution medium and mixed well.
The dissolution apparatus used is USP Apparatus 2 (Paddle Apparatus) with a speed of 50 rpm at 37.0° C.±0.5° C. Dissolution medium (500 ml) was Helium sparged for at least 10 minutes. N=6 samples were tested. Sample time point of 5, 10, 15, 20, 30, 45, 60, and 90 minutes (final time point at 250 rpm). Filters: QLA 10 μm in-line full flow porous filter or equivalent; chromafil 1.0 μm on-line glass fiber membrane filter or equivalent.
The dissolution apparatus was assembled and the paddle was positioned so that the distance between its lower edge and the lower inner surface of the vessel is within 25 mm±2 mm throughout the test. This step was repeated for each of the six vessels. The speed (50 rpm) and the temperature (37.0° C.±0.5° C.) were set. 500 mL of 0.1N HCl solution were placed into each of the six vessels, previously degassed via helium purge, degassed using degasser or other suitable means. The Dissolution medium was equilibrated to set temperature and the temperature of the dissolution medium was checked with a thermometer or thermocouple before starting the dissolution. Each of the six (6) capsules were accurately weighed and the weight was recorded. The dissolution test was started. Each capsule was dropped with sinker into vessels noting the station assigned to each recorded capsule weight. The shaft was rotated at 50 rpm. Samples were withdrawn by dissolution auttosampler at 5, 10, 15, 20, 30, 45, 60, and 90 minutes into HPLC vials, or were withdraw manually. Filters (QLA 10 μm in-line full flow porous filter or equivalent; chromafil 1.0 μm on-line glass fiber membrane filter or equivalent) were utilized, discarding at least the first 5 mL of the filtrate, and clear filtrate was transfered into HPLC vials. After withdrawing samples at the 60 minute time point, the paddle rotation speed was increased to 250 rpm until the next time point of 90 minutes.
HPLC conditions: Flow rate: 1.0 ml/min; Injection Volume: 10 μL; Column Temperature: 40° C.±2° C.; Wavelengths: 240 nm; Run Time: 7 minutes; Mobile Phase A was 0.2% TFA in Water, which was prepared by mixing well 2.0 ml of trifluoroacetic acid with 1 L of water. Mobile Phase B: 0.2% TFA in Acetonitrile, which was prepared by mixing well 2.0 ml of trifluoroacetic acid to 1 L of acetonitrile; and Gradient used was as follows in Table 8.
If a Water® dissolution autosampler was utilized, then the Empower Dissolution Software was used to calculate the profile. Calculation are performed using a validated excel spreadsheet. When the sample was performed manually, the volume correction was considered for the calculation.

[1] = in a capsule, after 1 month store at 40° C., 5 min, 50 rpm
[2] = in a capsule, after 1 month store at 40° C., 10 min, 50 rpm
[3] = in a capsule, after 1 month store at 40° C., 15 min, 50 rpm
[4] = in a capsule, after 1 month store at 40° C., 20 min, 50 rpm
[5] = in a capsule, after 1 month store at 40° C., 30 min, 50 rpm
[6] = in a capsule, after 1 month store at 40° C., 45 min, 50 rpm
[7] = in a capsule, after 1 month store at 40° C., 60 min, 50 rpm
[8] = in a capsule, after 1 month store at 40° C., 90 min (250 rpm after 60 min)
[9] = in a capsule, large batch, 5 min, 50 rpm
[10] = in a capsule, large batch, 10 min, 50 rpm
[11] = in a capsule, large batch, 15 min, 50 rpm
[12] = in a capsule, large batch, 20 min, 50 rpm
[13] = in a capsule, large batch, 30 min, 50 rpm
[14] = in a capsule, large batch, 45 min, 50 rpm
[15] = in a capsule, large batch, 60 min, 50 rpm
[16] = in a capsule, large batch, 90 min (250 rpm after 60 min)

- Dissolution, API released (content of capsule without shells, 5 min, 50 rpm): 85%
- Dissolution, API released (content of capsule without shells, 10 min, 50 rpm): 90%
- Dissolution, API released (content of capsule without shells, 15 min, 50 rpm): 92%
- Dissolution, API released (content of capsule without shells, 20 min, 50 rpm): 94%
- Dissolution, API released (content of capsule without shells, 30 min, 50 rpm): 94%
- Dissolution, API released (content of capsule without shells, 45 min, 50 rpm): 95%
- Dissolution, API released (content of capsule without shells, 60 min, 50 rpm): 96%
- Dissolution, API released (content of capsule without shells, 90 min (250 rpm after 60 min)): 100%
- Dissolution (% release), Max. [1]: 56
- Dissolution (% release), Mean [1]: 43
- Dissolution (% release), Min. [1]: 35
- Dissolution (% release), Max. [2]: 77
- Dissolution (% release), Mean [2]: 64
- Dissolution (% release), Min. [2]: 54
- Dissolution (% release), Max. [3]: 83
- Dissolution (% release), Mean [3]: 73
- Dissolution (% release), Min. [3]: 63
- Dissolution (% release), Max. [4]: 88
- Dissolution (% release), Mean [4]: 79
- Dissolution (% release), Min. [4]: 68
- Dissolution (% release), Max. [5]: 92
- Dissolution (% release), Mean [5]: 84
- Dissolution (% release), Min. [5]: 74
- Dissolution (% release), Max. [6]: 96
- Dissolution (% release), Mean [6]: 89
- Dissolution (% release), Min. [6]: 80
- Dissolution (% release), Max. [7]: 98
- Dissolution (% release), Mean [7]: 92
- Dissolution (% release), Min. [7]: 84
- Dissolution (% release), Max. [8]: 103
- Dissolution (% release), Mean [8]: 102
- Dissolution (% release), Min. [8]: 99
- Dissolution (% release), Max. [9]: 63
- Dissolution (% release), Mean [9]: 47
- Dissolution (% release), Min. [9]: 32
- Dissolution (% release), Max. [10]: 87
- Dissolution (% release), Mean [10]: 69
- Dissolution (% release), Min. [10]: 53
- Dissolution (% release), Max. [11]: 92
- Dissolution (% release), Mean [11]: 78
- Dissolution (% release), Min. [11]: 63
- Dissolution (% release), Max. [12]: 95
- Dissolution (% release), Mean [12]: 82
- Dissolution (% release), Min. [12]: 71
- Dissolution (% release), Max. [13]: 97
- Dissolution (% release), Mean [13]: 87
- Dissolution (% release), Min. [13]: 79
- Dissolution (% release), Max. [14]: 99
- Dissolution (% release), Mean [14]: 92
- Dissolution (% release), Min. [14]: 85
- Dissolution (% release), Max. [15]: 101
- Dissolution (% release), Mean [15]: 94
- Dissolution (% release), Min. [15]: 88
- Dissolution (% release), Max. [16]: 105
- Dissolution (% release), Mean [16]: 102
- Dissolution (% release), Min. [16]: 101
- Dissolution, API released (in a capsule, small batch, 5 min, 50 rpm): 55%
- Dissolution, API released (in a capsule, small batch, 10 min, 50 rpm): 78%
- Dissolution, API released (in a capsule, small batch, 15 min, 50 rpm): 85%
- Dissolution, API released (in a capsule, small batch, 20 min, 50 rpm): 88%
- Dissolution, API released (in a capsule, small batch, 30 min, 50 rpm): 92%
- Dissolution, API released (in a capsule, small batch, 45 min, 50 rpm): 95%
- Dissolution, API released (in a capsule, small batch, 60 min, 50 rpm): 97%
- Dissolution, API released (in a capsule, small batch, 90 min (250 rpm after 60 min)): 102%
- Dissolution, API released (promethazine and sumatriptan pellets, 5 min, 50 rpm): 95%
- Dissolution, API released (promethazine and sumatriptan pellets, 15 min, 50 rpm): 102%
- Dissolution, API released (promethazine and sumatriptan pellets, 20 min, 50 rpm): 102%
- Dissolution, API released (promethazine and sumatriptan pellets, 30 min, 50 rpm): 102%
- Dissolution, API released (promethazine and sumatriptan pellets, 45 min, 50 rpm): 102%
- Dissolution, API released (promethazine and sumatriptan pellets, 60 min, 50 rpm): 102%
- Dissolution, API released (promethazine and sumatriptan pellets, 90 min (250 rpm after 60 min)): 102%
SMILES: CC(CN1c2ccccc2Sc2ccccc21)N(C)C (centres unmarked) [Promethazine, Promethazine Hydrochloride]
